From ChEMBL document CHEMBL1126635, “Mechanistic interpretation of the genotoxicity of nitrofurans (antibacterial agents) using quantitative structure-activity relationships and comparative molecular field analysis” (J Med Chem, 1993)

Experiments:
Escherichia coli = assay: Genotoxicity (SOSIP) on Escherichia coli PQ37 (SOS induction potential data, as a measure of genotoxicity); format: functional
Salmonella typhimurium [1] = assay: Mutagenicity in Salmonella Typhimurium TA100 was determined; format: functional, Salmonella enterica subsp. enterica serovar Typhimurium
Salmonella typhimurium [2] = assay: Mutagenicity in Salmonella Typhimurium TA98 was determined; format: functional, Salmonella enterica subsp. enterica serovar Typhimurium
Salmonella typhimurium [3] = assay: Mutagenicity inSalmonella Typhimurium TA100 was determined; format: functional, Salmonella enterica subsp. enterica serovar Typhimurium
Salmonella typhimurium [4] = assay: Mutagenicity inSalmonella Typhimurium TA98 was determined; format: functional, Salmonella enterica subsp. enterica serovar Typhimurium

Structure (SMILES) | Log SOSIP (Escherichia coli) | Log TA100 (Salmonella typhimurium [1]) | Log TA98 (Salmonella typhimurium [2]) | Log TA100 (Salmonella typhimurium [3]) | Log TA98 (Salmonella typhimurium [4])
O=[N+]([O-])c1cc2cc(Cl)c3ccccc3c2o1 | 2.97 | 3.96 | 3.82 | – | –
COc1ccc2oc([N+](=O)[O-])cc2c1 | 1.89 | 2.8 | 1.74 | – | –
COc1cccc2cc3cc([N+](=O)[O-])oc3cc12 | 2.96 | 3.07 | 3.44 | – | –
CC(C)c1c([N+](=O)[O-])oc2ccc3ccccc3c12 | 3.74 | – | – | – | –
Cc1c([N+](=O)[O-])oc2ccccc12 | 1.2 | 3.7 | – | – | –
CC(=O)Cc1c([N+](=O)[O-])oc2ccc3ccccc3c12 | 3.43 | – | – | – | –
O=[N+]([O-])c1cc2c(ccc3cc4ccccc4cc32)o1 | 4.87 | – | 3.95 | – | –
Cc1c([N+](=O)[O-])oc2cc3c(cc12)CCCC3 | 3.41 | 4.54 | 3.32 | – | –
CCOC(=O)COc1ccc2c(ccc3oc([N+](=O)[O-])cc32)c1 | 3.18 | – | – | – | –
O=[N+]([O-])c1oc2ccc3ccccc3c2c1CCO | 3.78 | – | 3.59 | – | –
O=[N+]([O-])c1cc2cc3ccccc3c(Br)c2o1 | 3.04 | 2.67 | 3.31 | – | –
O=[N+]([O-])c1cc2cc3ccc4cccc5ccc(c2o1)c3c45 | 3.72 | – | – | – | –
CCCCc1c([N+](=O)[O-])oc2ccc3ccccc3c12 | 4.28 | – | – | – | –
CC(=O)c1ccc2c(ccc3oc([N+](=O)[O-])cc32)c1 | 3.72 | – | – | – | –
COc1ccc2oc(-c3ccc([N+](=O)[O-])o3)cc2c1 | 3.08 | – | – | – | –
Cc1ccc2c(ccc3oc([N+](=O)[O-])cc32)c1 | 3.95 | – | – | – | –
Cc1c([N+](=O)[O-])oc2c3c(ccc12)CCCC3 | 3.28 | 4.38 | 2.46 | – | –
O=[N+]([O-])c1cc2c(ccc3cc(O)ccc32)o1 | 3.58 | – | – | – | –
O=[N+]([O-])c1cc2c3c(ccc2o1)CCCC3 | 2.08 | 2.81 | 2.11 | – | –
COc1cc2oc([N+](=O)[O-])cc2c2ccccc12 | 3.86 | 3.59 | 3.28 | – | –
COc1ccc2c(ccc3oc([N+](=O)[O-])c(C)c32)c1 | 4.7 | – | – | – | –
O=[N+]([O-])c1oc2ccc3ccccc3c2c1-c1ccccc1 | 4.43 | – | – | – | –
O=[N+]([O-])c1cc2ccccc2o1 | 1.53 | 1.54 | 1.3 | – | –

Structure (SMILES) | Log SOSIP (Escherichia coli) | Log TA100 (Salmonella typhimurium [1]) | Log TA98 (Salmonella typhimurium [2]) | Log TA100 (Salmonella typhimurium [3]) | Log TA98 (Salmonella typhimurium [4])
COc1ccc2c(C)c([N+](=O)[O-])oc2c1 | 2.28 | 3.54 | – | – | –
Cc1c([N+](=O)[O-])oc2ccc3cc(Br)ccc3c12 | 4.81 | – | – | – | –
O=[N+]([O-])c1cc2c(cc3ccc4cccc5ccc2c3c45)o1 | 5 | – | – | – | –
COc1cc2ccccc2c2cc([N+](=O)[O-])oc12 | 4.04 | 4.66 | 4.2 | – | –
O=[N+]([O-])c1cc2ccc3cc4ccccc4cc3c2o1 | 4.08 | – | 3.88 | – | –
O=[N+]([O-])c1cc2cc3c(cc2o1)CCCC3 | 2.25 | 3.11 | 2.63 | – | –
CCc1c([N+](=O)[O-])oc2ccc3ccccc3c12 | 4.32 | – | 4.18 | – | –
COc1ccc2c(ccc3oc([N+](=O)[O-])cc32)c1Br | 3.43 | – | – | – | –
O=[N+]([O-])c1cc2ccc3c(c2o1)CCCC3 | 1.93 | 2.95 | 2.59 | – | –
COC(=O)Cc1ccc2c(ccc3oc([N+](=O)[O-])cc32)c1 | 3.18 | – | – | – | –
Cc1c([N+](=O)[O-])oc2ccc3ccccc3c12 | 4.91 | 6.71 | 4.91 | – | –
COc1ccc2ccc3oc([N+](=O)[O-])cc3c2c1OC | 4.2 | – | – | – | –
COc1ccc2ccc3oc([N+](=O)[O-])cc3c2c1Br | 4.46 | – | – | – | –
COc1ccc2ccc3oc([N+](=O)[O-])cc3c2c1 | 4.25 | 5.58 | 4.75 | – | –
COc1ccc2c(ccc3oc([N+](=O)[O-])cc32)c1 | 4.23 | 5.31 | 4.9 | – | –
COc1cc2cc([N+](=O)[O-])oc2c2ccccc12 | 3.45 | 4.26 | 3.25 | – | –
COc1ccc2cc3c(ccc4oc([N+](=O)[O-])cc43)cc2c1 | 4.77 | – | 4.86 | – | –
Cc1c([N+](=O)[O-])oc2ccc3c(c12)CCCC3 | 2.11 | 3.78 | 3.08 | – | –
CC(=O)Oc1ccc2c(ccc3oc([N+](=O)[O-])cc32)c1 | 3 | – | – | – | –
O=[N+]([O-])c1cc2c(ccc3ccccc32)o1 | 3.96 | – | – | 4.31 | 3.33
Cc1c([N+](=O)[O-])oc2c1ccc1ccccc12 | 4.34 | – | – | – | –
Cc1c([N+](=O)[O-])oc2cc3ccccc3cc12 | 3.34 | – | – | – | –
O=[N+]([O-])c1cc2c(ccc3cc(Br)ccc32)o1 | 4.64 | 4.16 | 3.61 | – | –
